Measurements taken from a melting point compilation (Tetko et al.; mined from patent text by program, amines drawn as free bases though some values may be those of a salt).

SMILES | melting point
COc1cc(-c2c(Cl)c(CN3CCCC3=O)nc3sc4c(c23)CCN(Cc2ccccc2)C4)ccc1OC(C)C | 140 to 141 °C
O=C1C(=O)c2ccccc2C2=C1SCC1(CCCNC1)O2 (stereo unspecified) | 128 to 134 °C
Cc1ccn2c(C)c(CCc3ccc4nc(NC(=N)N)oc4c3)nc2c1 | 195 to 196 °C
CCCCN(CCCC)c1ccc(C(C#N)=C(C#N)C#N)c(OC)c1 | 86 °C
O=C1C(O)SCN1c1cccc([N+](=O)[O-])c1 (stereo unspecified) | 129 to 131 °C
COC(=O)c1[nH]ccc1OC(C)C | 77 to 79 °C
O=C(Nc1cccnc1)N1N=CCC1c1ccccc1 (stereo unspecified) | 104 to 106 °C
COC1(c2cc(F)cc(OCC#Cc3ccc(Cc4nc(-c5ccccc5)c(-c5ccc(S(N)(=O)=O)cc5)o4)cc3)c2)CCOCC1 | 86 to 100 °C
COc1ccc(CCOC(c2ccccc2)(c2ccccc2)C(O)C(=O)O)cc1OC (stereo unspecified) | 133 to 135 °C
CC1=N/C(=C\c2c[nH]c3cc(C)ccc23)C(=O)O1 | 194 to 196 °C
Cc1oc(-c2ccccc2)nc1COc1ccc(COc2ccc(OCc3ccccc3)cc2CC#N)cc1 | 130 to 131 °C
CC(C)Cn1c(CNC(=O)OC(C)(C)C)c(-c2ccc(Cl)cc2)c2cc(C(=O)O)ccc2c1=O | 226 to 227 °C
NCCCOc1cccc2[nH]c3ccccc3c12 | 146 to 147 °C
O=C[C@H]1CC[C@H](SCc2ccc(Cl)cc2)CC1 | 44 to 46 °C
COc1ccc2c(c1)c1c3c(c(-c4ccccc4)cc1n2CCO)C(=O)NC3=O | 262 to 264 °C
COCCc1nc2c(N)nc3cc(OCc4cccc(N)c4)ccc3c2n1CC(C)(C)O | 203 to 206 °C
O=C(ON1C(=O)CCC1=O)c1ccc(-c2ccc(S(=O)(=O)N(CCO)CCO)cc2)[nH]c1=O | 213 to 216 °C
CNC1(C)CN(c2nc3c(cc2F)c(=O)c(C(=O)O)cn3C2CC2)C1 | 283 to 286 °C
C=C1C(O)C(CO)OC1n1cc(CC)c(=O)[nH]c1=O (stereo unspecified) | 137 to 139 °C
CCCNS(=O)(=O)c1cc(C)c2cc(C(C)C)ccc(C)c1-2 | 60 to 62 °C
N#CC1C(=O)c2ccccc2Nc2ccccc21 (stereo unspecified) | 195 to 197 °C
CC(C)(C)C(O)(C=Cc1ccc(Cl)cc1)Cn1cncn1 (stereo unspecified) | 81 to 83.5 °C
COc1ccc(-n2nnc3c(-c4ccc(C(F)(F)F)cc4F)ncnc32)cc1 | 175 to 177 °C
Cc1oc(-c2ccccc2)nc1Cc1cc2cc(C=CC=C3OC(=O)NC3=O)ccc2o1 | 237 to 239 °C

SMILES | melting point
COC(=O)c1ncoc1-c1ccc([N+](=O)[O-])cc1Cl | 121 to 122 °C
CCCOc1ccccc1-c1nc2nnc(N)nc2c(=O)[nH]1 | 322 to 325 °C
S=C(Nc1cnccc1NC1CCCCC1)NC1CCCCC1 | 157 to 159 °C
NC(=NCC(F)(F)F)Nc1ccnc(CCCO)n1 | 136 to 138 °C
Nc1c([N+](=O)[O-])cnn1-c1c(Cl)cc(C(F)(F)F)c(F)c1Cl | 156 °C
O=C(Nc1ccc([C@@H]2[C@H]3COC(=O)[C@H]32)c(F)c1)OCc1ccccc1 | 141 to 142 °C
COC(=O)C(NC(C)=O)C(=O)OCCCl (stereo unspecified) | 81 to 82 °C
Cc1[nH]c(=O)[nH]c1C(=O)c1cccs1 | 212 to 215 °C
O=C(Nc1cc(Cl)ccn1)c1ccn2c1CSC2c1cccnc1 (stereo unspecified) | 190 °C
O=C(Cc1ccccc1)OC1c2ccccc2C(=O)N1c1ccc2ccc(Cl)nc2n1 (stereo unspecified) | 222 to 224 °C
CCOC(=O)C(O)(CC(C)(C)c1ccc(OC)cc1)C(F)(F)F (stereo unspecified) | 79 to 80 °C
C=CCOC(=O)c1cnn(-c2c(Cl)cc(Br)cc2Cl)c1N | 85 °C
CC[C@H](C)N1CC(C)(C)[C@@H](Oc2ccc(C#N)c(C(F)(F)F)c2)C1=O | 101 to 102 °C
CCN(CC)c1ccc(-c2cc(-c3ccc(C(=O)O)cc3)ccc2OCCO)cc1C(C)(C)C | 216 °C
COc1ccc(C(=O)Nc2ccccc2)cc1NCc1ccc(OC)c(OC)c1 | 187 to 188 °C
CNC(=S)N1CCSC1c1ccccc1OCCN1CCN(c2ccccc2)CC1 (single isomer, unassigned; (-)) | 144 to 146 °C
COc1cc(Nc2c(C#N)cnc3cc(-c4cc(CN5CCOCC5)c(CN5CCOCC5)s4)ccc23)c(Cl)cc1Cl | 118 to 125 °C
FC(F)(F)c1ccc2c(c1)NC(=S)c1ccccc1S2 | 232 to 233 °C
COc1ccc(Cn2c(=O)[nH]c3ccc(C)cc3c2=O)cc1 | 263 to 265 °C
Nc1ccc(NC(=O)Nn2cnc3ccccc3c2=O)cc1 | > 305 °C
Fc1cccc(Cl)c1-c1cc(-c2ccc(Cl)cc2)nc2ncnn12 | 238 to 239 °C
Nc1ccc(Oc2c(Cl)cc(C(F)(F)F)c(Cl)c2Cl)cc1Cl | 128 °C
O=C(NN1CCCCC1)C1=NN(c2ccc(Cl)cc2Cl)C(c2ccc(Cl)cc2)C1 (stereo unspecified) | 75 to 78 °C
CCOC(=O)CC1OC(=O)c2c(Oc3nc(OC)cc(OC)n3)cccc21 (stereo unspecified) | 150 to 152 °C

SMILES | melting point
Cc1cc(-c2nnc3c4ccccc4c(OCc4cc(C(C)(C)C)cnn4)nn23)no1 | 219 to 221 °C
O=C(Nc1ccc2ccc(Cl)nc2n1)c1ccccc1 | 198 °C
CC(CN1CCCC1)N1c2ccccc2Sc2ccc(C(=O)NCc3cccc(F)c3)cc21 (racemic) | 165 °C
Cn1c2ccccc2c2c(N)c3c(nc21)C=CC3=O | 279 to 280 °C
O=C1Nc2cc(Cl)c(Cl)cc2C1(Br)c1ccccc1Cl (stereo unspecified) | 215 to 218 °C
CC(C)On1c(C(C)(C)C)nc2c(N)nc3ccccc3c21 | 187 to 189 °C
Oc1cc2[nH]c3c(O)c(O)ccc3c2cc1O | > 280 °C
S=c1cc(Oc2c(Cl)cccc2Cl)c2cc(Cl)ccc2s1 | 208 to 210 °C
c1cc(-c2ccnc3nc(N4CCNCC4)nn23)ccn1 | 147 to 149 °C
NC(=O)C1CN(CC(=O)Nc2c(Cl)cccc2Cl)CCN1 (stereo unspecified) | 180 to 183 °C
O=C(CCl)Nc1ccc2c(c1NC(=O)C1CC1)C(=O)c1ccccc1C2=O | 191 to 192 °C
CCOC(=O)Cc1nc(-c2ccc(Cl)cc2)oc1Oc1ccc(Cl)cc1 | 70 to 72 °C
Oc1ncnc2c(-c3ccc(Br)cc3)cnn12 | > 300 °C
O=Cc1cc(O)c(O)c(C=O)c1CCC(=O)O | 160 to 162 °C
Cc1c(Cc2cccnc2)sc2cc(C(=O)O)ccc12 | 248 to 249 °C
Cc1nc(N2CCc3ccccc3CC2)c(C#N)c(=O)n1N | 137 to 142 °C
CCOC(=O)c1c(-c2ccc(OC)c(OC)c2)c2cc(C)ccc2n(C)c1=O | 109 to 110 °C
CCOC(=O)c1ncc2[nH]c3cccc(Oc4ccc(Cl)cn4)c3c2c1C | 194 to 196 °C
COC=C1CCC(C#N)(c2ccc(OC)c3c2OCCO3)CC1 (stereo unspecified) | 112 to 113 °C
CC(C)(C)c1cc(-c2nnc(NC#N)s2)cc(C(C)(C)C)c1O | > 250 °C
O=C(O)COc1cccc2c1CCc1sc(SCCC(c3ccccc3)c3ccccc3)nc1-2 | 128 to 130 °C
COc1cc(C=C(C#N)C(=O)Nc2cccc(Cl)c2)cc(Br)c1O | 217 to 219 °C
CCOc1cc(-c2nc(-c3cnc(N)c(C)c3)no2)ccc1-c1ccccc1C(F)(F)F | 163 to 165 °C
